According to patent publication US9394282B2, “Pyrazole carboxamides as Janus kinase inhibitors” (Merck Sharp & Dohme Corp., priority 2011, dated 2016):

Columns and labels:
JAK1 = JAK1 (Homo sapiens (Human), UniProt P23458); experiment: Jak biochemical HTRF assay, JAK1; settings: recombinant purified GST-tagged catalytic domain; HTRF format; [ATP] 31.8 μM
Source text: (§1) Jak Biochemical HTRF Assay Protocol
(§2) Subsequent reagent additions employed an Agilent Bravo.

JAK2 = JAK2 (Homo sapiens (Human), UniProt O60674); experiment: Jak biochemical HTRF assay, JAK2; settings: recombinant purified GST-tagged catalytic domain; HTRF format; [ATP] […]
Source text: as §1, §2

Chain of JAK1 (P23458 875-1153): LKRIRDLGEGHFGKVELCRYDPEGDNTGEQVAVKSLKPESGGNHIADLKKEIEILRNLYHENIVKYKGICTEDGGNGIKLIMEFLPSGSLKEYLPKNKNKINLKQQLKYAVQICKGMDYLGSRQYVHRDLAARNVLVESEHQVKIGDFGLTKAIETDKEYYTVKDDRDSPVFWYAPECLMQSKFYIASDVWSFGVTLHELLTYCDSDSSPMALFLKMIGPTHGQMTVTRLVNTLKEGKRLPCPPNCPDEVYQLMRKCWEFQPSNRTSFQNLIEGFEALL
Chain of JAK2 (O60674 849-1124): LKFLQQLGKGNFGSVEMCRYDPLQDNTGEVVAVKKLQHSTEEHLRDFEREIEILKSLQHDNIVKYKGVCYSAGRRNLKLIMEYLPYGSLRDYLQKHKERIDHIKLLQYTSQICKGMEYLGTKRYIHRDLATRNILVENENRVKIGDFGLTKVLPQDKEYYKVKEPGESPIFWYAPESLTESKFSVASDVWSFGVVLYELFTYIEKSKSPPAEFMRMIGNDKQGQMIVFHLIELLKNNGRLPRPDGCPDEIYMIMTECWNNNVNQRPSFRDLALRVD

With `C[C@]1(C#N)CS(=O)(=O)CC1n1cc(C(N)=O)c(Nc2ccc(F)cc2)n1` (stereo partly drawn) [Example 13-5, 1-((3S,4R or 3R4S)-4-cyano-4-methyl-1,1-dioxidotetrahydrothiophen-3-yl)-3-((4-fluorophenyl)amino)-1H-pyrazole-4-carboxamide] the IC50 (JAK1) was 0.5 nM and the IC50 (JAK2) was 6 nM.
